# Measured values taken from patent publication US11725000B2, “Apoptosis inhibitors” (National Institute of Biological Sciences, Beijing, priority 2017, dated 2023).
# System: U2OS_Bim cells
# Assay: Apoptosis inhibition assay (Bim-induced apoptosis, cell viability by ATP level)
# Format: cell-based
# Conditions: U2OS_Bim cells; estimated (*Est.) / preliminary results; numbering of Tables 4a/4b; read-out: EC50
# How it was run: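 Apoptosis was triggered by doxycycline (0.1 μg/mL) induction of Bim, one hour after compound addition to U2OS_Bim cells. Survival was measured after 24 h from cellular ATP (CellTiter-Glo), relative to DMSO, with zVAD at 20 μM as rescue control. Data are duplicate means, some estimated from preliminary results.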
row,Compound,EC50 [nM]
1,Cc1cc(-c2cc(F)c(=O)n(Cc3ccc4[nH]c(=O)[nH]c4c3)c2)nc(S(=O)(=O)CCC(OCc2ccccc2F)c2ccccc2)n1 (stereo not shown) [Compound 341],1 to 1000
2,Cc1cc(-c2cc(F)c(=O)n(Cc3ccc4c(c3)OCO4)c2)nc(S(=O)(=O)CCC(OCC2CCOC2)c2ccccc2)n1 (stereo not shown) [Compound 414],1 to 1000
3,Cc1cc(-c2ccc(=O)n(Cc3ccc4c(c3)OCCO4)n2)nc(S(=O)(=O)CCC(OCc2ccccc2F)c2ccccc2)n1 (stereo not shown) [Compound 368],1 to 1000
4,Cc1cc(-c2cc(F)c(=O)n(Cc3ccc4c(c3)OCO4)c2)nc(S(=O)(=O)CCC(OCC2CCN(C)CC2)c2ccccc2)n1 (stereo not shown) [Compound 411],1 to 1000
5,Cc1cc(-c2cc(F)c(=O)n(Cc3ccc4c(c3)OCO4)c2)nc(S(=O)(=O)CCC(OCc2ccccc2F)c2cncs2)n1 (stereo not shown) [Compound 390],1 to 1000

# Same assay, conditions: U2OS_Bim cells; estimated based on preliminary results; numbering of Tables 4a/4b; read-out: EC50
row,Compound,EC50 [nM]
1,COc1ccc(Cn2cc(-c3cc(-c4nccs4)nc([S+](C)[O-])n3)ccc2=O)cc1OC (stereo not shown) [Compound 213],< 10000
2,C[S+]([O-])c1nc(-c2ccc(=O)n(Cc3ccc4cccnc4c3)c2)cc(C(F)(F)F)n1 (stereo not shown) [Compound 253],< 10000
3,C[S+]([O-])c1nc(-c2ccc(=O)n(Cc3ccc4ccncc4c3)c2)cc(C(F)(F)F)n1 (stereo not shown) [Compound 251],< 10000
4,C[S+]([O-])c1nc(-c2ccc(=O)n(Cc3ccc4c(c3)NCCN4)c2)cc(C(F)(F)F)n1 (stereo not shown) [Compound 235],< 10000
5,CS(=O)(=O)c1nc(-c2ccc(=O)n(Cc3ccc4c(c3)OCCN4)c2)cc(C(F)(F)F)n1 [Compound 240],< 10000
6,"CCC(=O)c1cc(-c2ccc(=O)n(Cc3ccc(OC)c(OC)c3)c2)nc(S(C)(=O)=O)n1 [Compound 269, 1-(3,4-dimethoxybenzyl)-5-(2-(methylsulfonyl)-6-propionylpyrimidin-4-yl)pyridin-2 (1H)-one]",< 10000
7,COc1ccn(Cn2cc(-c3cc(C(F)(F)F)nc([S+](C)[O-])n3)ccc2=O)c1 (stereo not shown) [Compound 261],< 10000
8,"COc1ccc(OC2CCCN(c3cc(C(F)(F)F)nc(S(C)(=O)=O)n3)C2)cc1OC (stereo not shown) [Compound 274, 4-(3-(3,4-dimethoxyphenoxy)piperidin-1-yl)-2-(methylsulfonyl)-6-(trifluoromethyl)pyrimidine]",< 100000
9,COc1ccc(Cn2cc(-c3cc(-c4cncs4)nc(S(C)(=O)=O)n3)ccc2=O)cc1OC [Compound 215],< 10000

# Same assay, conditions: U2OS_Bim cells; means of duplicates; numbering of Tables 4a/4b
row,Compound,EC50 [nM]
1,"C#CCOc1ccc(Cn2cc(-c3cc(C(F)(F)F)nc(S(C)(=O)=O)n3)ccc2=O)cc1OC [Compound 130, 1-(3-methoxy-4-(prop-2-yn-1-yloxy)benzyl)-5-(2-(methylsulfonyl)-6-(trifluoromethyl)pyrimidin-4-yl)pyridin-2 (1H)-one]",1 to 1000

# Same assay, conditions: U2OS_Bim cells; means of duplicates; numbering of Tables 4a/4b; read-out: EC50
row,Compound,EC50 [nM]
1,"COc1ccc(Cn2cc(-c3cc(-c4ccccc4F)nc([S+]([O-])CCC(OCc4ccccc4)c4ccccc4)n3)ccc2=O)cc1OC (stereo not shown) [Compound 297, 5-(2-((3-(benzyloxy)-3-phenylpropyl)sulfinyl)-6-(2-fluorophenyl)pyrimidin-4-yl)-1-(3,4-dimethoxybenzyl)pyridin-2 (1H)-one]",< 100000
2,"CS(=O)(=O)c1nc(-c2cccc(O)c2)cc(C(F)(F)F)n1 [Compound 50, 3-(2-(methylsulfonyl)-6-(trifluoromethyl)pyrimidin-4-yl)phenol]",< 100000
3,"COc1ccc(Cn2cc(-c3cc(C(F)F)nc(S(=O)(=O)CCCNC(C)=O)n3)ccc2=O)cc1OC [Compound 185, N-(3-((4-(difluoromethyl)-6-(1-(3,4-dimethoxybenzyl)-6-oxo-1,6-dihydropyridin-3-yl)pyrimidin-2-yl)sulfonyl)propyl)acetamide]",1000 to 10000
4,"CCCOc1cccc(Cn2cc(-c3cc(C(F)(F)F)nc([S+](C)[O-])n3)ccc2=O)c1 (stereo not shown) [Compound 114, 5-(2-(methylsulfinyl)-6-(trifluoromethyl)pyrimidin-4-yl)-1-(3-propoxybenzyl)pyridin-2 (11H)-one]",1000 to 10000
5,"CS(=O)(=O)c1nc(-c2ccc(=O)n(Cc3ccc(Cl)cc3)c2)cc(C(F)(F)F)n1 [Compound 106, 1-(4-chlorobenzyl)-5-(2-(methylsulfonyl)-6-(trifluoromethyl)pyrimidin-4-yl)pyridin-2 (1H)-one]",1 to 1000
6,"COc1ccc(Cn2cc(-c3cc(C(F)F)nc([S+]([O-])c4cccc(N)c4)n3)ccc2=O)cc1OC (stereo not shown) [Compound 181, 5-(2-((3-aminophenyl)sulfinyl)-6-(difluoromethyl)pyrimidin-4-yl)-1-(3,4-dimethoxybenzyl)pyridin-2 (1H)-one]",1 to 1000
7,"CCCCCCNC(=O)CCC[S+]([O-])c1nc(-c2ccc(=O)n(Cc3ccc(OC)c(OC)c3)c2)cc(C(F)F)n1 (stereo not shown) [Compound 184, 4-((4-(difluoromethyl)-6-(1-(3,4-dimethoxybenzyl)-6-oxo-1,6-dihydropyridin-3-yl)pyrimidin-2-yl)sulfinyl)-N-hexylbutanamide]",1 to 1000
8,"C[S+]([O-])c1nc(-c2ccc(=O)n(Cc3ccc(OC(F)(F)F)cc3)c2)cc(C(F)(F)F)n1 (stereo not shown) [Compound 116, 5-(2-(methylsulfinyl)-6-(trifluoromethyl)pyrimidin-4-yl)-1-(4-(trifluoromethoxy)benzyl)pyridin-2 (1H)-one]",1000 to 10000
9,"COc1ccc(Cn2cc(-c3nc([S+]([O-])CCC(OCc4ccccc4F)c4ccccc4)nc4sccc34)cc(F)c2=O)cc1F (stereo not shown) [Compound 301, 3-fluoro-1-(3-fluoro-4-methoxybenzyl)-5-(2-(3-(2-fluorobenzyloxy)-3-phenylpropylsulfinyl)thieno[2,3-d]pyrimidin-4-yl)pyridin-2 (1H)-one]",1000 to 10000
10,"COc1ccc(Cn2cc(-c3cc(C)nc(S(=O)(=O)CCC(OCc4ccccc4)c4ccccc4)n3)ccc2=O)cc1OC (stereo not shown) [Compound 295, 5-(2-(3-(benzyloxy)-3-phenylpropylsulfonyl)-6-methylpyrimidin-4-yl)-1-(3,4-dimethoxybenzyl)pyridin-2 (1H)-one]",1 to 1000
11,"CCCCCS(=O)(=O)c1nc(-c2ccc(=O)n(Cc3ccc(OC)c(OC)c3)c2)cc(C(F)(F)F)n1 [Compound 147, 1-(3,4-dimethoxybenzyl)-5-(2-(pentylsulfonyl)-6-(trifluoromethyl)pyrimidin-4-yl)pyridin-2 (1H)-one]",1 to 1000
12,"COc1ccc(Cn2cc(-c3cc(C)nc(S(=O)(=O)CCC(C)OCc4ccccc4F)n3)cc(F)c2=O)cc1F (stereo not shown) [Compound 305, 3-fluoro-1-(3-fluoro-4-methoxybenzyl)-5-(2-((3-((2-fluorobenzyl)oxy)butyl)sulfonyl)-6-methylpyrimidin-4-yl)pyridin-2 (1H)-one]",1 to 1000
13,"COc1ncccc1-c1cc(C(F)(F)F)nc([S+](C)[O-])n1 (stereo not shown) [Compound 79, 4-(2-Methoxypyridin-3-yl)-2-(methylsulfinyl)-6-(trifluoromethyl)pyrimidine]",< 100000
14,"C[S+]([O-])c1nc(-c2ccc(C(=O)O)cc2)cc(C(F)(F)F)n1 (stereo not shown) [Compound 65, 4-(2-(methylsulfinyl)-6-(trifluoromethyl)pyrimidin-4-yl)benzoic acid]",< 100000
15,"CNC(=O)c1ccccc1-c1cc(C(F)(F)F)nc(S(C)(=O)=O)n1 [Compound 67, N-methyl-2-(2-(methylsulfonyl)-6-(trifluoromethyl)pyrimidin-4-yl)benzamide]",< 100000
16,"COc1ccc(Cn2cc(-c3cc(C(F)F)nc(S(=O)(=O)c4cccc(N)c4)n3)ccc2=O)cc1OC [Compound 180, 5-(2-((3-aminophenyl)sulfonyl)-6-(difluoromethyl)pyrimidin-4-yl)-1-(3,4-dimethoxybenzyl)pyridin-2 (1H)-one]",1 to 1000
